According to PubChem BioAssay (NCI):
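A five-concentration, 48-hour dose response in 96-well plates underlies each endpoint, interpolated linearly between surrounding concentrations. Here, GI50 denotes the concentration required for 50% inhibition of growth. TGI: total growth inhibition.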

Assays:
Assay in all cases: growth of human tumour cells (NCI), 48 h
HCT-15 colon = system: HCT-15 colon
HS 578T breast = system: HS 578T breast
NCI-H226 lung = system: NCI-H226 lung
OVCAR-5 ovarian = system: OVCAR-5 ovarian
PC-3 prostate = system: PC-3 prostate
TK-10 renal = system: TK-10 renal
UACC-62 melanoma = system: UACC-62 melanoma
MOLT-4 leukemia = system: MOLT-4 leukemia

Structure (SMILES)	GI50 (HCT-15 colon)	TGI (HCT-15 colon)	GI50 (HS 578T breast)	TGI (HS 578T breast)	GI50 (NCI-H226 lung)	TGI (NCI-H226 lung)	GI50 (OVCAR-5 ovarian)	TGI (OVCAR-5 ovarian)	GI50 (PC-3 prostate)	TGI (PC-3 prostate)	GI50 (TK-10 renal)	TGI (TK-10 renal)	GI50 (UACC-62 melanoma)	TGI (UACC-62 melanoma)	GI50 (MOLT-4 leukemia)	TGI (MOLT-4 leukemia)
C=CCC(N[C@@H](CO)c1ccccc1)c1cn(Cc2ccccc2Cl)c(=O)n(Cc2ccccc2Cl)c1=O (stereo not given in full)	> 100 µM	> 100 µM	> 100 µM	> 100 µM	> 100 µM	> 100 µM	> 100 µM	> 100 µM	83.9 µM	> 100 µM	> 100 µM	> 100 µM	82.2 µM	> 100 µM	–	–
O=C1/C(=C\c2ccc(F)cc2)CN(C(=O)c2ccccc2)C/C1=C\c1ccc(F)cc1	1.5 µM	3.53 µM	–	–	26.6 µM	> 100 µM	2.64 µM	11.7 µM	2.08 µM	6.59 µM	4.21 µM	17.3 µM	1.84 µM	4.83 µM	2.56 µM	72.5 µM
CC(C)(C)N1CCC1CN (stereo not given)	> 100 µM	> 100 µM	> 100 µM	> 100 µM	> 100 µM	> 100 µM	> 100 µM	> 100 µM	> 100 µM	> 100 µM	> 100 µM	> 100 µM	> 100 µM	> 100 µM	> 100 µM	> 100 µM
CCOC(=O)c1ccc(Nc2sc(C(=O)c3ccc(Br)cc3)c(N)c2C#N)cc1	0.662 µM	> 100 µM	1.48 µM	> 100 µM	19.2 µM	> 100 µM	5.66 µM	> 100 µM	0.797 µM	> 100 µM	–	–	0.483 µM	> 100 µM	4.61 µM	> 100 µM
CN(C)c1ccc(/C=C/c2ccnc3c(O)cccc23)cc1	0.335 µM	> 100 µM	0.85 µM	> 100 µM	2.31 µM	> 26.8 µM	6.66 µM	> 100 µM	0.383 µM	> 100 µM	1.68 µM	> 100 µM	0.294 µM	1.07 µM	0.357 µM	> 100 µM
COc1ccc(C(=O)Nc2ncc(Cc3cccc(Cl)c3)s2)cc1OC	0.0631 µM	> 100 µM	0.445 µM	> 100 µM	1.48 µM	> 100 µM	1.25 µM	> 100 µM	1.5 µM	> 100 µM	7.85 µM	> 100 µM	0.0173 µM	> 100 µM	0.374 µM	> 100 µM
O=C(O)/C=C/C(=O)N1Cc2cc3ccccc3nc2C1	–	> 100 µM	–	> 100 µM	–	> 100 µM	–	> 100 µM	–	> 100 µM	–	> 100 µM	–	> 100 µM	–	> 100 µM
Cc1c(O)c2ccccc2oc1=O	–	> 100 µM	–	> 100 µM	–	> 100 µM	–	> 100 µM	–	> 100 µM	–	–	–	> 100 µM	–	> 100 µM
Cn1cc(C2=C(c3ccccc3[N+](=O)[O-])C(=O)NC2=O)c2ccccc21	5.16 µM	> 25 µM	0.975 µM	> 16.9 µM	4.37 µM	> 20.3 µM	8.64 µM	> 25 µM	1.65 µM	11.6 µM	5.58 µM	18.6 µM	3.68 µM	12.1 µM	–	–
CCOC(=O)c1ccc2c(c1)Cc1cc([N+](=O)[O-])ccc1-2	–	> 100 µM	–	> 100 µM	–	51.2 µM	–	> 100 µM	–	> 100 µM	–	86.5 µM	–	> 100 µM	–	51.6 µM
CC(C)N1CC2CN(Cc3ccccc3)CC(C1)C2=O	–	> 100 µM	–	> 100 µM	–	> 100 µM	–	> 100 µM	–	> 100 µM	–	> 100 µM	–	> 100 µM	–	> 100 µM
CN1CCC(COc2cnc(-c3cccc(Cn4nc(-c5cccc(C#N)c5)ccc4=O)c3)nc2)CC1	3.47 µM	15.5 µM	4.63 µM	19.8 µM	7.18 µM	24.8 µM	7.69 µM	27.5 µM	6.7 µM	31.8 µM	2.65 µM	6.15 µM	2.07 µM	4.54 µM	2.53 µM	6.62 µM
COc1ccc2sc3cccc(NCCN(C)C)c3c(=O)c2c1	2.24 µM	6.65 µM	2.83 µM	13.1 µM	3.34 µM	14.1 µM	3.42 µM	14.5 µM	2.96 µM	11.4 µM	4.06 µM	14.3 µM	1.76 µM	3.24 µM	2.5 µM	6.01 µM
CSC1=Nc2c(c(C)c(-c3ccccc3)n2CCCN2CCCCC2)C2=NC(=O)C[C@H](C)N12	8.41 µM	> 53.2 µM	2.04 µM	10.4 µM	4.5 µM	> 79.7 µM	11.3 µM	> 100 µM	2.01 µM	10.1 µM	3.98 µM	> 30.6 µM	3.17 µM	15.4 µM	4.38 µM	> 22.5 µM
CCOC(=O)[C@@H](C)C[C@H](Cc1ccccc1)NC(=O)c1nc([C@@H](C[C@H](C(C)C)N(C)C(=O)[C@@H](NC(=O)[C@H]2CCCCN2C)C(C)C)OC(C)=O)sc1CCOCc1ccccc1	0.262 µM	1.51 µM	0.083 µM	2.85 µM	0.107 µM	1.05 µM	0.246 µM	4.11 µM	0.0521 µM	2.41 µM	0.631 µM	5.28 µM	0.0372 µM	1.69 µM	0.132 µM	5.61 µM
O=c1cc(-c2ccccc2)oc2ccc(OC/C(=N/O)c3ccccc3)cc12	2.19 µM	> 50 µM	–	–	15.9 µM	> 50 µM	43.8 µM	> 50 µM	2.46 µM	16.1 µM	> 50 µM	> 50 µM	2.48 µM	> 50 µM	5.72 µM	> 50 µM

Structure (SMILES)	GI50 (HCT-15 colon)	TGI (HCT-15 colon)	GI50 (HS 578T breast)	TGI (HS 578T breast)	GI50 (NCI-H226 lung)	TGI (NCI-H226 lung)	GI50 (OVCAR-5 ovarian)	TGI (OVCAR-5 ovarian)	GI50 (PC-3 prostate)	TGI (PC-3 prostate)	GI50 (TK-10 renal)	TGI (TK-10 renal)	GI50 (UACC-62 melanoma)	TGI (UACC-62 melanoma)	GI50 (MOLT-4 leukemia)	TGI (MOLT-4 leukemia)
CCC(CC)c1nc(Nc2ccc(C(=O)OC)cc2)c2ccccc2n1	11 µM	> 33.1 µM	10.9 µM	26.5 µM	7.93 µM	22.8 µM	17.9 µM	> 50 µM	7.8 µM	17.1 µM	13.2 µM	25.7 µM	9.13 µM	18.6 µM	1.41 µM	3.67 µM
Cc1ccc(Cl)cc1Nc1nc(C(F)(F)F)ccc1C(=O)N/N=C/c1cccnc1	0.693 µM	13.7 µM	4.05 µM	18.5 µM	2.38 µM	12.4 µM	3.44 µM	17.1 µM	1.99 µM	18.7 µM	1.32 µM	8.89 µM	3.25 µM	13.7 µM	1.42 µM	10.7 µM
CCCCCCCC/C=C/CCCCCCCC1=NC(C)(C)CN1CC(C)O (stereo not given)	1.63 µM	3.27 µM	1.9 µM	4.62 µM	6.25 µM	23.7 µM	3.6 µM	10.4 µM	2.26 µM	8.08 µM	2.73 µM	7.49 µM	1.66 µM	3.13 µM	2.05 µM	4.28 µM
O=C(/C=C/c1ccco1)c1cc(F)c(Cl)cc1Cl	21.5 µM	55.8 µM	13.7 µM	39.6 µM	19.9 µM	47.2 µM	22.5 µM	48.9 µM	24.8 µM	80.1 µM	28.4 µM	90.1 µM	16.5 µM	34.6 µM	–	–
C=C(C)[C@@H]1CC[C@]2(COCCC#N)CC[C@]3(C)[C@H](CC[C@@H]4[C@@](C)(CCCNCCC#N)[C@H](C(=C)C)CC[C@]43C)[C@@H]12	7.66 µM	16.6 µM	21.1 µM	> 50 µM	8.88 µM	18.5 µM	13.4 µM	44.1 µM	10.3 µM	> 50 µM	16 µM	> 50 µM	8.81 µM	23.1 µM	7.72 µM	25 µM
Cc1cc(Nc2ccc(OCc3ccccc3)cc2)nc2cc(O)ccc12	2.16 µM	5.48 µM	10.2 µM	29.2 µM	3.49 µM	17.6 µM	4.66 µM	18.4 µM	3.46 µM	18 µM	14.5 µM	29.2 µM	2.96 µM	10.7 µM	3.37 µM	17.4 µM
NC1=CC(=O)c2cccnc2C1=O	1.76 µM	10.2 µM	2.28 µM	8.17 µM	7.61 µM	27.7 µM	2.05 µM	4.72 µM	2.22 µM	7.55 µM	15.6 µM	29.2 µM	1.47 µM	2.87 µM	1.01 µM	3.45 µM
O=C(COc1ccc(/C=C2\COc3ccccc3C2=O)cc1)Nc1nccs1	5.05 µM	23.8 µM	2.74 µM	9.4 µM	14.4 µM	29.9 µM	16.7 µM	32.9 µM	3.95 µM	28.5 µM	28.7 µM	58.5 µM	7.69 µM	21.1 µM	1.6 µM	3.76 µM
COC1=CC(c2ccc[nH]2)=N/C1=C\c1[nH]c(C)c(CC(=O)OCc2ccccc2)c1CCC(=O)OCc1ccccc1	0.313 µM	1.18 µM	0.395 µM	2.87 µM	0.335 µM	2.3 µM	1.26 µM	6.12 µM	0.346 µM	12.6 µM	0.406 µM	2.1 µM	–	–	0.309 µM	2.01 µM
O=C1c2[nH]cc(CNC3CN4CCC3CC4)c2C(=O)c2c1c(O)c1ccccc1c2O (stereo not given)	3.62 µM	8.55 µM	26.6 µM	77.5 µM	16.3 µM	41.4 µM	2.01 µM	3.78 µM	1.21 µM	3.41 µM	0.266 µM	1.19 µM	14.9 µM	37.6 µM	–	1.72 µM
Cc1cccc(-c2[nH]ncc2-c2ccc3ncccc3n2)n1	9.98 µM	> 25 µM	> 14.5 µM	> 25 µM	9.92 µM	> 25 µM	9.82 µM	> 25 µM	> 17.3 µM	> 25 µM	13 µM	> 25 µM	13.7 µM	> 25 µM	14.2 µM	> 25 µM
CC[C@@H]1[C@@H](C)O[C@@](O)([C@@H](C)[C@H](O)[C@H](C)[C@H]2OC(=O)/C=C/C=C/[C@H](C)[C@@H]([C@@H](C)[C@@H](O)[C@H](C)[C@@]3(O)C[C@@H](O[C@H]4C[C@@H](O)[C@H](O)C(C)O4)[C@H](CC)[C@@H](C)O3)OC(=O)/C=C/C=C/[C@@H]2C)C[C@H]1O[C@@H]1C[C@@H](O)[C@H](O)C(C)O1 (stereo not given in full)	0.459 µM	0.924 µM	0.0798 µM	0.253 µM	0.0655 µM	0.139 µM	0.0839 µM	0.316 µM	0.0568 µM	0.147 µM	0.0746 µM	0.212 µM	0.0604 µM	0.152 µM	0.0933 µM	0.219 µM
OC(c1cc(-c2cccc(Cl)c2)nc2ccccc12)C1CCCCN1 (stereo not given)	1.91 µM	3.91 µM	–	–	–	–	1.62 µM	3.29 µM	1.4 µM	2.84 µM	2.12 µM	4.48 µM	1.93 µM	3.58 µM	1.6 µM	4.14 µM
O=C(c1ccco1)c1nc2cc(C(F)(F)F)ccc2nc1C(F)(F)F	> 100 µM	> 100 µM	> 100 µM	> 100 µM	–	–	> 100 µM	> 100 µM	> 100 µM	> 100 µM	> 100 µM	> 100 µM	> 100 µM	> 100 µM	> 100 µM	> 100 µM
O=C1CC[C@H](N2C(=O)c3cccc4c(Cc5ccc(CN6CCOCC6)cc5)ccc2c34)C(=O)N1	41.8 µM	> 100 µM	46.8 µM	> 100 µM	11.7 µM	> 100 µM	> 100 µM	> 100 µM	40.4 µM	> 100 µM	> 100 µM	> 100 µM	–	–	27.6 µM	> 100 µM
